Assay results as given in patent publication US11801255B2, “Lipid disulfide prodrugs and uses related thereto” (priority 2017, dated 2023).
Where two headings read alike, the source gives them in different places.

Assays:
[1] = system: HIV-1; test: microbe, parasite or virus in culture; conditions: for TI(CC50/EC50): HIV-1, PBMCs
Protocol: (§1) Compounds synthesized were evaluated against HIV-infected PBMCs and antiviral activity was assessed by measuring reverse transcriptase in cell supernatants. Compounds 11a-e, 12a-e, and 13 were assayed against HBV and qPCR was used to quantify viral DNA following incubation in HepG2.2.15 cells after 6 days.

[2] = system: PBMCs; test: in vitro; type: cell-based, human
[3] = system: HBV; test: Antiviral activity against HBV in HepG2.2.15 cells, viral DNA by qPCR after 6 days; conditions: for HBV TI (CC50/EC50): HepG2; for EC50: read-out: HBV EC50 (HepG2)
Protocol: as §1

[4] = system: HepG2; test: Cytotoxicity: viability of uninfected HepG2 cells; type: cell-based; conditions: read-out: HBV CC50 (HepG2)
[5] = Stability in human plasma/serum by LC-MS; type: in vitro ADME; conditions: human plasma
Protocol: Aliquots of each sample were analyzed by LC-MS at varying times points over the course of 2 hours with a final time point at 24 to assess decomposition.

[6] = read-out: HIV-1 activity (EC50), PBMCs
[7] = Table 1, viability of uninfected cells reduced by 50%, read-out: HIV-1 CC50 (PBMCs)
[8] = read-out: EC50 (PBMCs), Table 4, HIV-1
[9] = Table 4, read-out: CC50 (PBMCs)
[10] = read-out: HIV-1 EC50 (PBMCs), Table 2
[11] = Table 2, read-out: HIV-1 CC50 (PBMCs)
[12] = read-out: HIV-1 EC50 (PBMCs), Table 1, inhibit HIV-1 by 50%, average of triplicate

Compound | HIV-1 TI (CC50/EC50) ([1]; Table 1, PBMCs) | EC50 [1, 6] [µM] | CC50 [2, 7] [µM] | HBV TI (CC50/EC50) ([3]; Table 1) | EC50 ([3]; Table 1, inhibit HBV by 50%) [µM] | CC50 ([4]; Table 1, uninfected cells) [µM] | TI(CC50/EC50) ([1]; Table 4) | EC50 [1, 8] [µM] | CC50 [2, 9] [µM] | also measured
CCCCCCCCCCCCSSCCOP(=O)(O)CO[C@H](C)Cn1cnc2c(N)ncnc21.N [Compound 11b] | 8,300 | 0.003 | 25 | >30 | 1.67 | > 50 | – | – | – | fold more active than CMX-157, HIV-1 ([1]; vs CMX-157 (20 nM)): seven-fold
CCCCCCCCCCCCCCCCSSCCOP(=O)(COC(C)Cn1cnc2c(N)ncnc21)OCC (mixture of isomers) [Compound 14] | – | – | – | – | – | – | 104 | 0.349 | 36.2 | –
CCCCCCCCCCCCCCCCCCOP(=O)(COC(C)Cn1cnc2c(N)ncnc21)OCCSSCCCCCCCCCCCCCCCC (mixture of isomers) [Compound 21] | – | 0.911 | – | – | – | – | >50 | – | > 50 | –
CCCCCCCCCCCCCCCCSSCCOP(=O)(COC(C)Cn1cnc2c(N)ncnc21)OCc1ccccc1 (mixture of isomers) [Compound 19] | – | 0.018 | – | – | – | – | 2,300 | – | 41.1 | –
CCCCCCCCCCCCCCCCSSCCOP(=O)(COC(C)Cn1cnc2c(N)ncnc21)OCCCC (mixture of isomers) [Compound 16] | – | – | – | – | – | – | 150 | 0.19 | 27.9 | –
CCCCCCCCCCCCCCCCCCSSCCOP(=O)(CO[C@H](C)Cn1cnc2c(N)ncnc21)OCCSSCCCCCCCCCCCCCCCCCC [Compound 12e] | – | – | – | – | – | – | – | – | – | HIV-1 TI (CC50/EC50) ([1]; Table 2, PBMCs): >76; HIV-1 potency compared to parent nucleoside TFV ([1]; in words): comparable to TFV; EC50 [1, 10]: 0.331 µM; CC50 [2, 11]: > 25 µM; HBV TI (CC50/EC50) ([3]; Table 2): >1; EC50 ([3]; Table 2): > 25 µM; CC50 ([4]; Table 2): > 25 µM
C[C@H](Cn1cnc2c(N)ncnc21)OCP(=O)(O)OCCSSCCO [DTE-TFV, reference compound] | >62.1 | – | > 100 | >8.6 | 11.6 | > 100 | – | – | – | fold less active than TFV against HIV-1 [1]: 5 fold; EC50 [1, 12]: 1.61 µM; t1/2 in human plasma [5]: 34 min
CCCCCCCCCCCCSSCCOP(=O)(CO[C@H](C)Cn1cnc2c(N)ncnc21)OCCSSCCCCCCCCCCCC [Compound 12b] | – | – | – | – | – | – | – | – | – | HIV-1 TI (CC50/EC50) ([1]; Table 2, PBMCs): >85.0; EC50 [1, 10]: 1.18 µM; CC50 [2, 11]: > 100 µM; HBV TI (CC50/EC50) ([3]; Table 2): >1; EC50 ([3]; Table 2): > 100 µM; CC50 ([4]; Table 2): > 100 µM
CCCCCCCCCCSSCCOP(=O)(O)CO[C@H](C)Cn1cnc2c(N)ncnc21.N [Compound 11a] | >590 | 0.085 | > 50 | >1 | > 50 | > 50 | – | – | – | fold less potent than TDF, HIV-1 ([1]; EC50 ratio vs TDF): 18 fold
CCCCCCCCCCCCCCCCSSCCOP(=O)(COC(C)Cn1cnc2c(N)ncnc21)OC(C)CC (mixture of isomers) [Compound 17] | – | – | – | – | – | – | 480 | 0.049 | 23.7 | HIV-1 activity of s-Bu ester relative to n-Bu analogue 16 ([1]; vs compound 16): nearly four-fold
tenofovir disoproxil fumarate [TDF, reference compound] | 9,500 | 0.0046 | 43.7 | 190 | 0.34 | 64.5 | 9,500 | 0.0046 | 43.7 | HIV-1 TI (CC50/EC50) ([1]; Table 2, PBMCs): 9,500; HIV-1 TI (CC50/EC50) ([1]; Table 3, PBMCs): 9,500; EC50 [1, 12]: 0.0046 µM; EC50 [1, 10]: 0.0046 µM; EC50 ([1]; read-out: HIV-1 EC50 (PBMCs), Table 3): 0.0045 µM; CC50 [2, 11]: 43.7 µM; CC50 ([2]; Table 3, read-out: HIV-1 CC50 (PBMCs)): 44 µM; HBV TI (CC50/EC50) ([3]; Table 2): 86; HBV TI (CC50/EC50) ([3]; Table 3): 190; EC50 ([3]; Table 2): 0.34 µM; EC50 ([3]; Table 3): 0.34 µM; CC50 ([4]; Table 2): 29.2 µM; CC50 ([4]; Table 3): 64.5 µM
